# Assays:
# [1] = molecular target: Sodium-dependent serotonin transporter (Homo sapiens, UniProt P31645); experiment: Displacement of [3H]-imipramine from human serotonin transporter expressed in HEK293 cells membranes incubated for 30 mins by microbeta scintillation counting analysis; type: cell membranes
# [2] = molecular target: T1, 5-hydroxytryptamine receptor 1A (Homo sapiens, UniProt P08908); experiment: biochemical
# T1 sequence (P08908 whole entry): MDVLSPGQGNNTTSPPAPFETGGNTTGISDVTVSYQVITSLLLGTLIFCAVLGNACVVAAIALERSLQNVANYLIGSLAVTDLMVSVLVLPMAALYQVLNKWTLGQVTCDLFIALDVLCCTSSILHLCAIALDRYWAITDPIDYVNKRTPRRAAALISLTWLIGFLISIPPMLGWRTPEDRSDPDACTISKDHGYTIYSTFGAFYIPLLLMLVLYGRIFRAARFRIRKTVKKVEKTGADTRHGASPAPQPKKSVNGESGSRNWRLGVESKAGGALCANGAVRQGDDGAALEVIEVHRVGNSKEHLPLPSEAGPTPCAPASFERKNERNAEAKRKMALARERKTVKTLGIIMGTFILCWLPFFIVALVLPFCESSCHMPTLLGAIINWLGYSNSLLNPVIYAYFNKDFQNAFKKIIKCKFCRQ
# Mus musculus [3] = experiment: Induction of hypothermia in CD-1 mouse assessed as change in body temperature at 10 mg/kg, ip measured after 120 mins by thermometric method; type: functional, organism-based
# [4] = molecular target: 5-hydroxytryptamine receptor 6 (Homo sapiens, UniProt P50406); experiment: Displacement of [3H]-LSD from human 5-HT6 receptor expressed in HEK293 cells incubated for 1 hr by liquid scintillation counting method; type: cell-based
# Mus musculus [5] = experiment: Induction of hypothermia in CD-1 mouse assessed as change in body temperature at 20 mg/kg, ip measured after 60 mins by thermometric method; type: functional, organism-based
# Mus musculus [6] = experiment: Induction of hypothermia in CD-1 mouse assessed as change in body temperature at 5 mg/kg, ip measured after 120 mins by thermometric method; type: functional, organism-based
# [7] = Half life in human liver microsomes at 1 uM measured for 5 to 30 mins in presence of NADPH by LC-MS/MS analysis; type: ADME, Microsome
# Mus musculus [8] = experiment: Induction of hypothermia in CD-1 mouse assessed as change in body temperature at 20 mg/kg, ip measured after 120 mins by thermometric method; type: functional, organism-based
# Mus musculus [9] = experiment: Induction of hypothermia in CD-1 mouse assessed as change in body temperature at 10 mg/kg, ip pretreated for 30 mins with 5-HT1AR antagonist WAY100635 followed by compound treatment and measured after 30 mins by thermometric method; type: functional, organism-based
# Mus musculus [10] = experiment: Induction of hypothermia in CD-1 mouse assessed as change in body temperature at 5 mg/kg, ip measured after 60 mins by thermometric method; type: functional, organism-based
# Mus musculus [11] = experiment: Induction of hypothermia in CD-1 mouse assessed as change in body temperature at 5 mg/kg, ip measured after 30 mins by thermometric method; type: functional, organism-based
# Mus musculus [12] = experiment: Induction of hypothermia in CD-1 mouse assessed as change in body temperature at 10 mg/kg, ip measured after 60 mins by thermometric method; type: functional, organism-based
# Mus musculus [13] = experiment: Induction of hypothermia in CD-1 mouse assessed as change in body temperature at 10 mg/kg, ip measured after 90 mins by thermometric method; type: functional, organism-based
# Mus musculus [14] = experiment: Induction of hypothermia in CD-1 mouse assessed as change in body temperature at 10 mg/kg, ip pretreated for 60 mins with 5-HT1AR antagonist WAY100635 followed by compound treatment and measured after 30 mins by thermometric method; type: functional, organism-based
# [15] = molecular target: 5-hydroxytryptamine receptor 7 (Homo sapiens, UniProt P34969); experiment: Displacement of [3H]-5-CT from human 5HT7 receptor expressed in HEK293 cells incubated for 1 hr by liquid scintillation counting method; type: cell-based
# Mus musculus [16] = experiment: Induction of hypothermia in CD-1 mouse assessed as change in body temperature at 5 mg/kg, ip measured after 90 mins by thermometric method; type: functional, organism-based
# Mus musculus [17] = experiment: Induction of hypothermia in CD-1 mouse assessed as change in body temperature at 10 mg/kg, ip measured after 30 mins by thermometric method; type: functional, organism-based
# Mus musculus [18] = experiment: Induction of hypothermia in CD-1 mouse assessed as change in body temperature at 20 mg/kg, ip measured after 90 mins by thermometric method; type: functional, organism-based
# Mus musculus [19] = experiment: Induction of hypothermia in CD-1 mouse assessed as change in body temperature at 20 mg/kg, ip measured after 30 mins by thermometric method; type: functional, organism-based
# D(2) dopamine receptor = D(2) dopamine receptor (Homo sapiens, UniProt P14416); experiment: Displacement of [3H]-raclopride from human D2L receptor expressed in HEK293 cells incubated for 1 hr by liquid scintillation counting method; type: cell-based
# Chain of D(2) dopamine receptor (P14416 whole entry): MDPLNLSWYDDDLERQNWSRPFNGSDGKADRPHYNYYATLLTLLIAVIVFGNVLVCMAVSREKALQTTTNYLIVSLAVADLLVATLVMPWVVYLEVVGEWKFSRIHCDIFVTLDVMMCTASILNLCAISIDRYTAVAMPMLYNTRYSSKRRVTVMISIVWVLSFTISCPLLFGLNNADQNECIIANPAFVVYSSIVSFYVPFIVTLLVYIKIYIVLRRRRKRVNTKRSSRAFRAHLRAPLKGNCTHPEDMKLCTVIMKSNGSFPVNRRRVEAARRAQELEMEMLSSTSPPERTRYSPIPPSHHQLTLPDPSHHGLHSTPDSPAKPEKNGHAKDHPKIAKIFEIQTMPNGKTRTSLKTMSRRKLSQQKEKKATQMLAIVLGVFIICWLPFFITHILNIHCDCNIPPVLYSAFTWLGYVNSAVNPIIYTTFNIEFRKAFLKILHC
# Chain of Sodium-dependent serotonin transporter (P31645 whole entry): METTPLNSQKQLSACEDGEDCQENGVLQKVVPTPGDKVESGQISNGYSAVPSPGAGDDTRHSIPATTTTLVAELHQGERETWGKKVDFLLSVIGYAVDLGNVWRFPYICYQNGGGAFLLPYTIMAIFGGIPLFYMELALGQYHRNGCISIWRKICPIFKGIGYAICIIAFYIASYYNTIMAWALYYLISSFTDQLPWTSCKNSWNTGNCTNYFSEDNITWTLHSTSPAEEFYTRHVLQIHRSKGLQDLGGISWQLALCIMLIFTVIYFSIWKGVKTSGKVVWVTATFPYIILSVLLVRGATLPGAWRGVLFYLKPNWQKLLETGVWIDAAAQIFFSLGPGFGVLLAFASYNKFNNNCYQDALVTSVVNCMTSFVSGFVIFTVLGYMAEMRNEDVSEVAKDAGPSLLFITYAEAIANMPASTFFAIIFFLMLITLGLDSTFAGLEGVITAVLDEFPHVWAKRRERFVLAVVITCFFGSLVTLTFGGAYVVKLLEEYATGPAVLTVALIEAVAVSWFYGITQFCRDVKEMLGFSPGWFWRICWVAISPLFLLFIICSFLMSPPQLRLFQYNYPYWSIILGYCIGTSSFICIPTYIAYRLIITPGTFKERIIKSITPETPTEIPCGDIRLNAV
# Chain of 5-hydroxytryptamine receptor 7 (P34969 whole entry): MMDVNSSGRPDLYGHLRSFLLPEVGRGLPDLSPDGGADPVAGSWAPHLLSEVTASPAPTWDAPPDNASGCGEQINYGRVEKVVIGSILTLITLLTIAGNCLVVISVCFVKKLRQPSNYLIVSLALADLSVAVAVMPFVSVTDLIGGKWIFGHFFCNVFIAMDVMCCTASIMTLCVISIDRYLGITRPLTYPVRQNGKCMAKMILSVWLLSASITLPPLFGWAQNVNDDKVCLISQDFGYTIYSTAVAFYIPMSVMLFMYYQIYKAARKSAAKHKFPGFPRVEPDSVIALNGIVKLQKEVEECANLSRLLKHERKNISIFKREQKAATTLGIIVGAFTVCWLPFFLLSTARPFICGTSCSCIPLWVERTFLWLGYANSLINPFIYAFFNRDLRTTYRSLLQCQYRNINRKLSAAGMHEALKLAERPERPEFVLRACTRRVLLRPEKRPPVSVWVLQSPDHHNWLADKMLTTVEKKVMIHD
# Chain of 5-hydroxytryptamine receptor 6 (P50406 whole entry): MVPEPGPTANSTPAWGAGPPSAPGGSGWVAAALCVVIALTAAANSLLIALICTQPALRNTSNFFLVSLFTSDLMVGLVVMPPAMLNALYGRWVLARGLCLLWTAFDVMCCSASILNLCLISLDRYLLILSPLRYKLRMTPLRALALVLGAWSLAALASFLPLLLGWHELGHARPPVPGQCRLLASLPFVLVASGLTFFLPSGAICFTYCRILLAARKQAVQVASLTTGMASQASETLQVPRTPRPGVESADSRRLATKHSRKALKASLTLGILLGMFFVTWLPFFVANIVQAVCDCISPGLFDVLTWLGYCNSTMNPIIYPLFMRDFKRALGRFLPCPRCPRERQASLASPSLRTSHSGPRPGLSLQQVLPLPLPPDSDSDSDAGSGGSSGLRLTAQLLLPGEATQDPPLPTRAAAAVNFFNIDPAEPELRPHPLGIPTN
smiles,measurement,setting,value
O=C1CC(c2c[nH]c3ccc(F)cc23)C(=O)N1CCN1CCC(c2c[nH]c3ccc(F)cc23)CC1 (configuration not stated),Ki,[1],0.314 µM
same,Ki,[2],0.7 µM
COc1ccc2[nH]cc(C3CC(=O)N(CCCCN4CCC(c5c[nH]c6ccc(F)cc56)CC4)C3=O)c2c1 (configuration not stated),deltaT,Mus musculus [3],0.4 °C
same,Ki,[1],0.0175 µM
same,Ki,[4],0.085 µM
same,deltaT,Mus musculus [5],0.5 °C
same,deltaT,Mus musculus [6],-0.4 °C
same,half-life at 1 µM,[7],9.9 min
same,deltaT,Mus musculus [8],0.6 °C
same,deltaT,Mus musculus [9],-0.1 °C
same,deltaT,Mus musculus [10],0.4 °C
same,deltaT,Mus musculus [11],-0.1 °C
same,deltaT,Mus musculus [12],-0.1 °C
same,Ki,[2],0.0049 µM
same,deltaT,Mus musculus [13],0.3 °C
same,deltaT,Mus musculus [14],-0.2 °C
same,Ki,[15],0.641 µM
same,deltaT,Mus musculus [16],0.1 °C
same,deltaT,Mus musculus [17],-1.3 °C
same,deltaT,Mus musculus [18],0.6 °C
same,deltaT,Mus musculus [19],-1.8 °C
same,Ki,D(2) dopamine receptor,0.062 µM
COc1ccc2[nH]cc(C3CCCN(CCCCN4C(=O)CC(c5c[nH]c6ccccc56)C4=O)C3)c2c1 (configuration not stated),Ki,[2],0.078 µM
CN(C)C(=O)N[C@H]1CC[C@H](CCN2CCN(c3cccc(Cl)c3Cl)CC2)CC1 [CARIPRAZINE],Ki,[15],0.111 µM
O=C1CC(c2c[nH]c3ccc(F)cc23)C(=O)N1CCN1CCC(c2c[nH]c3ccccc23)CC1 (configuration not stated),Ki,[1],0.102 µM
same,Ki,[2],0.32 µM
COc1ccc2[nH]cc(C3CCN(CCCCN4C(=O)CC(c5c[nH]c6ccc(F)cc56)C4=O)CC3)c2c1 (configuration not stated),deltaT,Mus musculus [3],0.3 °C
same,Ki,[1],0.201 µM
same,Ki,[4],0.071 µM
same,deltaT,Mus musculus [5],-1.4 °C
same,deltaT,Mus musculus [6],0.8 °C
same,half-life at 1 µM,[7],9.9 min
same,deltaT,Mus musculus [8],-0.2 °C
same,deltaT,Mus musculus [9],-0.4 °C
same,deltaT,Mus musculus [10],0.6 °C
same,deltaT,Mus musculus [11],0.4 °C
same,deltaT,Mus musculus [12],0.2 °C
same,Ki,[2],0.0032 µM
same,deltaT,Mus musculus [13],0.2 °C
same,deltaT,Mus musculus [14],0.8 °C
same,Ki,[15],0.458 µM
same,deltaT,Mus musculus [16],0.6 °C
same,deltaT,Mus musculus [17],-1.1 °C
same,deltaT,Mus musculus [18],-0.6 °C
same,deltaT,Mus musculus [19],-3.2 °C
same,Ki,D(2) dopamine receptor,0.02 µM
COc1ccc2[nH]cc(C3CCN(CCCN4C(=O)CC(c5c[nH]c6ccc(F)cc56)C4=O)CC3)c2c1 (configuration not stated),Ki,[1],0.156 µM
same,Ki,[2],0.157 µM
COc1ccc2[nH]cc(C3CC(=O)N(CCCN4CCC(c5c[nH]c6ccccc56)CC4)C3=O)c2c1 (configuration not stated),Ki,[1],0.523 µM
same,Ki,[2],0.204 µM
O=C1CC(c2c[nH]c3ccc(F)cc23)C(=O)N1CCCN1CCC(c2c[nH]c3ccccc23)CC1 (configuration not stated),Ki,[1],0.151 µM
same,Ki,[2],0.143 µM
O=C1CC(c2c[nH]c3ccccc23)C(=O)N1CCCCN1CCCC(c2c[nH]c3ccc(F)cc23)C1 (configuration not stated),Ki,[2],0.183 µM
COc1ccc2[nH]cc(C3CC(=O)N(CCCN4CCC(c5c[nH]c6ccc(F)cc56)CC4)C3=O)c2c1 (configuration not stated),Ki,[1],0.03 µM
same,Ki,[2],0.246 µM
COc1ccc2[nH]cc(C3CCN(CCN4C(=O)CC(c5c[nH]c6ccc(F)cc56)C4=O)CC3)c2c1 (configuration not stated),Ki,[1],1.31 µM
same,Ki,[2],> 5 µM
